Experimental findings from patent US20230126361A1, “METHODS OF CONTROLLING OR PREVENTING INFESTATION OF PLANTS BY THE PHYTOPATHOGENIC MICROORGANISM CORYNESPORA CASSIICOLA, […] AND/OR […]” (SYNGENTA CROP PROTECTION AG, priority 2020, published 2023) are described below.

What all share (type): cell-based
Conditions in all cases: PDB, 24° C., 3-4 days, 620 nm

The test system of assay [1] is Cercospora kikuchii. Kind of assay: Cercospora kikuchii (leaf blight) liquid culture growth inhibition. The method, then: (§1) Conidia of the fungus from cryogenic storage were directly mixed into nutrient broth (PDB potato dextrose broth). A DMSO solution of the test compounds was placed into a microtiter plate (96-well format) and the nutrient broth containing the fungal spores was added to it. The test plates were incubated at 24° C. and the inhibition of growth was determined photometrically after 3-4 days at 620 nm.

The test system of assay [2] is Corynespora cassiicola. Kind of assay: Corynespora cassiicola (target leaf spot) liquid culture growth inhibition. How it is done:
Conidia of the fungus from cryogenic storage were directly mixed into nutrient broth (PDB potato dextrose broth). A DMSO solution of the test compounds was placed into a microtiter plate (96-well format) and the nutrient broth containing the fungal spores was added to it. The test plates were incubated at 24° C. and the inhibition of growth (% control of Corynespora cassiicola) was determined photometrically after 3-4 days at 620 nm. The activity of a compound is derived by comparing the inhibition of growth in the treated test solution to the growth in the untreated check. […]

Assay [3] relates to Cercospora sojina. Kind of assay: Cercospora sojina (frogeye leaf spot) liquid culture growth inhibition. How it is done: as §1

As to `Cc1nc2c(F)c(F)ccc2cc1Oc1cccc(F)c1C(C)(C)O` [2-[2-(7,8-difluoro-2-methylquinolin-3-yloxy)-6-fluorophenyl]propan-2-ol], in assay [1] (0.74 ppm), the “% control (Example 3: Cercospora kikuchii)” value was “at least 20%”. Also, the “% control of Cercospora kikuchii” value in assay [1] (2.2 ppm) and in assay [1] (6.7 ppm) was “at least 50%” in each case. Also, the “% control of Corynespora cassiicola” value is “at least 20%” in assay [2] (0.027 ppm); “at least 20%” in assay [2] (0.25 ppm); “at least 50%” in assay [2] (0.74 ppm); “at least 70%” in assay [2] (2.2 ppm); “at least 90%” in assay [2] (6.7 ppm). Besides, the “% control of Cercospora sojina” value in assay [3] (0.25 ppm) is on record as “at least 20%”; in assay [3] (0.74 ppm), “at least 20%”; in assay [3] (2.2 ppm), “at least 50%”; in assay [3] (6.7 ppm) it was “at least 50%”.
